In US8962844B2, “1,3,4-oxadiazole and 1,3,4-thiadiazole β-lactamase inhibitors” (priority 2012, dated 2015):
Where a name gives a salt, the structure may show the parent alone.

System: bacterial strains that express the class D cephalosporinase OXA-15
Test: Standard BLI potentiation MIC / synergy MIC (sMIC) assays run in the presence of a β-lactam, OXA-15 expressing strains
Assay type: cell-based, E. coli
Settings: BLI in combination with a β-lactam; comparison with Avibactam (comparator compound CCC)
Text: Unless otherwise indicated, the activity of the BLI compounds can be described by the MIC value obtained from a Synergy MIC assay or a BLI potentiation assay (e.g as described herein), both of which are run in the presence of a β-lactam.
A set of β-lactamase expressing isogenic E. coli strains was constructed by cloning a β-lactamase gene into a customized derivative of pBR322 (GenBank Accession Number J01749) and transforming the engineered plasmids into E. coli. The NdeI restriction site within the plasmid backbone of pBR322 was removed to generate pBR322 ΔNdeI. The pBR322 ΔNdeI vector itself, minus the blaTEM-1 gene, was amplified using two primers: (1) pBR-Pbla 5′-cgcatatgactettectttttcaatattattg-3, SEQ ID 1, a primer with an engineered NdeI restriction site at the 3′ end of the blaTEM-1 promoter and (2) pBR-vec-1 5′-[…]-3′, SEQ ID 2, a primer with an engineered BamHI restriction site at the 3′ end of the blaTEM-1 open reading frame. The chloramphenicol resistance gene, cat, was generated by PCR amplification from pKD3 (GenBank Accession Number AY048742) using primers with an engineered NdeI restriction site at the 5′ end (Pbla-cat 5′-[…]-3′, SEQ ID 3) and an engineered BamHI restriction site at the 3′ end (Vec-1-cat 5′-[…]-3′, SEQ ID 4) of the resistance gene. The two PCR products, pBR322 ΔNdeI and cat were ligated together generating pBR-CBST (pBR322 ΔNdeI ΔTEM-1::cat Seq. ID 5) which retains both the pBR322 tetracycline resistance cassette, tetA, and the plasmid origin of replication but the blaTEM-1 gene was replaced by the cat gene.
Using this engineering strategy a number of plasmids producing β-lactamase genes from different classes (see below) were generated using synthetic genes with an engineered NdeI restriction site at the 5′ end and BamHI restriction site at the 3′ end of each gene (GenScript). Both the synthetic β-lactamase genes and cat gene were ligated into the NdeI/BamHI sites of the pBR322 ΔNdeI PCR product and transformed into electrocompetent E. coli ElectroMax DH10B (Invitrogen/Life Technologies). E. coli DH10B harboring the recombinant plasmids were selected on LB agar (supplemented with 25 μg/mL tetracycline) and single isolated colonies were then inoculated into 5 mL LB media (supplemented with 25 μg/mL tetracycline), and incubated at 37° C. with aeration (250 rpm) for 18 hrs. The cultures were frozen back at −80° C. in 20% glycerol. The DNA sequence of the cloned β-lactamase genes was confirmed. The β-lactamase gene expression in the recombinant E. coli strains was driven by the blaTEM-1 promoter in the pBR-CBST plasmid and was characterized by MIC profiling of the E. coli recombinant strains against comparator β-lactam/BLI combinations in broth microdilution assay.
The experimental protocol was performed according to Clinical and Laboratory Standards Institute (CLSI) guidelines with modifications as described below (CLSI guidelines can be derived from the CLSI document M07-A9 published in January 2012: “Methods for Dilution Antimicrobial Susceptibility Tests for Bacteria That Grow Aerobically; Approved Standard-Ninth Edition”).
To prepare for MIC testing, frozen glycerol stocks of clinical isolates (Klebsiella pneumoniae, Eschericia coli, Enterobacter spp, Citrobacter spp, or Pseudomonas aeruginosa) were used to streak for isolated colonies on rich, non-selective, tryptic soy agar containing 5% sheep's blood (TSAB). Frozen glycerol stocks of laboratory engineered, isogenic E. coli strains, which contain cloned β-lactamase expressing plasmids were used to streak for isolated colonies on rich, selective LB agar supplemented with 25 μg/mL tetracycline to maintain the plasmid. All strains were incubated at 37° C. for 18-24 hrs.
On the day of testing, primary cultures were started by scraping off 5-10 colonies from the TSAB plates containing clinical strains or the tetracycline supplemented LB plates containing engineered strains. […]

SMILES	activity against bacterial strains that express the class D cephalosporinase OXA-15, compared with Avibactam
N=C(N)NCc1nnc([C@@H]2CC[C@@H]3CN2C(=O)N3OS(=O)(=O)O)o1 [Compound 704, (2S,5R)-2-(5-(guanidinomethyl)-1,3,4-oxadiazol-2-yl)-7-oxo-1,6-diazabicyclo[3.2.1]octan-6-yl hydrogen sulfate]	more active than Avibactam
Nc1nnc([C@@H]2CC[C@@H]3CN2C(=O)N3OS(=O)(=O)O)o1 [Compound 707, (2S,5R)-2-(5-amino-1,3,4-oxadiazol-2-yl)-7-oxo-1,6-diazabicyclo[3.2.1]octan-6-yl hydrogen sulfate]	more active than Avibactam
N=C(N)N1CCC(c2nnc([C@@H]3CC[C@@H]4CN3C(=O)N4OS(=O)(=O)O)o2)CC1 [Compound 712, (2S,5R)-2-(5-(1-carbamimidoylpiperidin-4-yl)-1,3,4-oxadiazol-2-yl)-7-oxo-1,6-diazabicyclo[3.2.1]octan-6-yl hydrogen sulfate]	more active than Avibactam
O=C1N2C[C@@H](CC[C@H]2c2nnc(N3CCNCC3)o2)N1OS(=O)(=O)O [Compound 713, (2S,5R)-7-oxo-2-(5-(piperazin-1-yl)-1,3,4-oxadiazol-2-yl)-1,6-diazabicyclo[3.2.1]octan-6-yl hydrogen sulfate]	more active than Avibactam
N=C(N)NCCCc1nnc([C@@H]2CC[C@@H]3CN2C(=O)N3OS(=O)(=O)O)o1 [Compound 714, (2S,5R)-2-(5-(3-guanidinopropyl)-1,3,4-oxadiazol-2-yl)-7-oxo-1,6-diazabicyclo[3.2.1]octan-6-yl hydrogen sulfate]	more active than Avibactam
NCC(O)c1nnc([C@@H]2CC[C@@H]3CN2C(=O)N3OS(=O)(=O)O)o1 (stereo partly drawn) [Compound 715, (2S,5R)-2-(5-(2-amino-1-hydroxyethyl)-1,3,4-oxadiazol-2-yl)-7-oxo-1,6-diazabicyclo[3.2.1]octan-6-yl hydrogen sulfate]	more active than Avibactam
NCCNCCc1nnc([C@@H]2CC[C@@H]3CN2C(=O)N3OS(=O)(=O)O)o1 [Compound 716, (2S,5R)-2-(5-(2-((2-aminoethyl)amino)ethyl)-1,3,4-oxadiazol-2-yl)-7-oxo-1,6-diazabicyclo[3.2.1]octan-6-yl hydrogen sulfate]	more active than Avibactam
NCC(N)c1nnc([C@@H]2CC[C@@H]3CN2C(=O)N3OS(=O)(=O)O)o1 (stereo partly drawn) [Compound 717, (2S,5R)-2-(5-(1,2-diaminoethyl)-1,3,4-oxadiazol-2-yl)-7-oxo-1,6-diazabicyclo[3.2.1]octan-6-yl hydrogen sulfate]	more active than Avibactam
O=C1N2C[C@@H](CC[C@H]2c2nnc(C3CCNCC3)s2)N1OS(=O)(=O)O [Compound 719, (2S,5R)-7-oxo-2-(5-(piperidin-4-yl)-1,3,4-thiadiazol-2-yl)-1,6-diazabicyclo[3.2.1]octan-6-yl hydrogen sulfate]	more active than Avibactam
O=C1N2C[C@@H](CC[C@H]2c2nnc(CC3CNC3)o2)N1OS(=O)(=O)O [Compound 725, (2S,5R)-2-(5-(azetidin-3-ylmethyl)-1,3,4-oxadiazol-2-yl)-7-oxo-1,6-diazabicyclo[3.2.1]octan-6-yl hydrogen sulfate]	more active than Avibactam
